Results taken from US20180327367A1, “MACROCYCLIC BROAD SPECTRUM ANTIBIOTICS” (priority 2015, published 2018).
Values after ≈ are worked out from the molar mass of the structure shown. Like-named read-outs stand apart in the source and are kept apart here.

Columns and labels:
[1] = test system: Methicillin Resistant Staphylococcus aureus strain USA 300, NRS384; test: Minimum inhibitory concentration, broth micro-dilution (CLSI), S. aureus; assay type: cell-based; settings: Staphylococcus aureus, MRSA / NRS 384 / USA300, 22 h, 35° C., 22 hours
In short: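 Colonies grown 20 hours at 35° C were suspended in cation-adjusted Mueller Hinton Broth with 0.002% Tween-80. Cells were then added to 2-fold compound dilutions starting at 4 or 0.5 μg/mL, at OD600 0.0005.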

[2] = test system: Escherichia coli MC4100 harboring the IMP4213 (E. coli IMP); test: microbe, parasite or virus in culture; assay type: cell-based; settings: Escherichia coli, 22 h, read-out: MIC (μg/mL) E. coli IMP, E. coli MC4100 IMP4213, increased outer-membrane permeability; 35° C., 22 hours
In short: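 Broth micro-dilution per CLSI in cation-adjusted Mueller Hinton Broth with 0.002% Tween-80; E. coli MC4100 carries IMP4213, raising outer-membrane permeability. Compounds tested as 2-fold serial dilutions (10 concentrations) from 4 μg/mL (protocol 2) or 0.5 μg/mL (protocol 3); inoculum OD600 0.0005, 35° C for 22 hours.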

[3] = test system: Escherichia coli ATCC 25922; test: Minimum inhibitory concentration, broth micro-dilution (CLSI), E. coli; assay type: cell-based; settings: Escherichia coli, ATCC25922, 22 h, 35° C., 22 hours
[4] = target: T1, SpsB (Staphylococcus aureus signal peptidase) (Staphylococcus aureus, UniProt P0A070); test: cell-based; assay type: biochemical; settings: SpsB IC50, whole-cell S. aureus (USA300 background, overexpressing SpsB) as SpsB source; fluorogenic peptide substrate, kinetic read 30 min
T1 construct: This assay uses a suspension of Staphylococcus aureus cells as a source of SpsB instead of recombinant SpsB protein; endogenous in cells; host or cells: S. aureus, USA300 background, overexpressing SpsB (whole-cell suspension from frozen pellets)
In short: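 Whole S. aureus cells (USA300, overexpressing SpsB) in PBS with MgCl2, CaCl2 and 0.1% Tween-80 served as enzyme source, mixed with 20 μM stock of (Dabcyl)βAla-KPAKAAE(Edans) substrate before use. Fluorescence (ex 340/em 490 nm) read kinetically over 30 min. IC50 from reaction rate versus 11-point inhibitor concentration.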

[5] = read-out: MIC (μg/mL) S. aureus, MRSA USA 300 NRS384
[6] = read-out: MIC (μg/mL) E. coli, E. coli ATCC 25922
[7] = MRSA USA 300 NRS384, read-out: MIC (μg/mL) S. aureus
[8] = E. coli ATCC 25922, read-out: MIC (μg/mL) E. coli

T1 sequence (P0A070 whole entry): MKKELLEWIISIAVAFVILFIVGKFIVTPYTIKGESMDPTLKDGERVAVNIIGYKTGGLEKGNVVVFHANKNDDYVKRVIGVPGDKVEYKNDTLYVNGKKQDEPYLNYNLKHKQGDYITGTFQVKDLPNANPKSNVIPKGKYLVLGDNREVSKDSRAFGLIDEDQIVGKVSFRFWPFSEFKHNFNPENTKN

SMILES	MIC [1, 5] [µg/mL]	MIC [2] [µg/mL]	MIC [3, 6] [µg/mL]	IC50 [4] [nM]	MIC [1, 7] [µg/mL]	MIC [3, 8] [µg/mL]
C[C@@H]1NC(=O)[C@@H](N(C)C(=O)[C@H](CCN)NC(=O)/C=C/c2ccc(-c3ccc(Cl)cc3)cc2)c2ccc(OCCN)c(c2)-c2cc(ccc2OCCN)C[C@@H](C(=O)NCC#N)NC1=O [Compound 427]	0.063 (≈ 0.0717 µM)	0.047 (≈ 0.0535 µM)	1 (≈ 1.14 µM)	1.2		
CCCCc1ccc(-c2ccc(C(=O)N[C@@H](CN)C(=O)N(C)[C@@H]3C(=O)N[C@@H](C)C(=O)N[C@H](C(=O)NCC#N)Cc4ccc(OCCC)c(c4)-c4cc3ccc4OCCN)cc2)cc1 [Compound 322]		0.13 (≈ 0.151 µM)		8.4	1.5 (≈ 1.75 µM)	4 (≈ 4.66 µM)
CCCCc1ccc(-c2ccc(C(=O)N[C@@H](CCCCN)C(=O)N(C)[C@@H]3C(=O)N[C@@H](C)C(=O)N[C@H](C(=O)NC(C)(C)C#N)Cc4ccc(OCCN)c(c4)-c4cc3ccc4OCCN)cc2)cc1 [Compound 496]		0.5 (≈ 0.538 µM)		17	3 (≈ 3.23 µM)	16 (≈ 17.2 µM)
CCCCCCCCCNCCCC(=O)N(C)[C@@H]1C(=O)N[C@@H](C)C(=O)N[C@H](C(=O)NCC#N)Cc2ccc(OCCN)c(c2)-c2cc1ccc2OCCN [Compound 133]		> 4		1.1	0.25 (≈ 0.334 µM)	> 64
CCCCc1cc(C)c(C(=O)N[C@@H](CCCN)C(=O)N(C)[C@@H]2C(=O)N[C@@H](C)C(=O)N[C@H](C(=O)NCC#N)Cc3ccc(OCCN)c(c3)-c3cc2ccc3OCCN)c(C)c1 [Compound 230]		0.031 (≈ 0.0369 µM)		1.3	0.38 (≈ 0.452 µM)	4 (≈ 4.76 µM)
C#CCC(C)(C)COc1ccc(C(=O)N[C@@H](CCN)C(=O)N(C)[C@@H]2C(=O)N[C@@H](C)C(=O)N[C@H](C(=O)NCC#N)Cc3ccc(OCCN)c(c3)-c3cc2ccc3OCCN)c(C)c1 [Compound 284]	0.13 (≈ 0.15 µM)	0.012 (≈ 0.0139 µM)	1 (≈ 1.15 µM)	0.82		
CCCCCCCCc1ccc(C(=O)N[C@@H](CCCCN)C(=O)N(C)[C@@H]2C(=O)N[C@@H](C)C(=O)N[C@H](C(=O)NCC#N)Cc3ccc(OC)c(c3)-c3cc2ccc3OC)cc1 [Compound 470]		0.5 (≈ 0.607 µM)		24	3 (≈ 3.64 µM)	> 64
CCCCc1ccc(C(=O)N[C@H](CCC)C(=O)N[C@@H](CCN)C(=O)N(C)[C@@H]2C(=O)N[C@@H](C)C(=O)N[C@H](C(=O)NCC#N)Cc3ccc(OCCN)c(c3)-c3cc2ccc3OCCN)c(C)c1 [Compound 354]	0.25 (≈ 0.274 µM)	0.063 (≈ 0.0691 µM)	8 (≈ 8.78 µM)	1.8		
CCCCCCCc1cc(C)c(C(=O)N[C@@H](CCN)C(=O)N(C)[C@@H]2C(=O)N[C@@H](C)C(=O)N[C@H](C(=O)NCC#N)Cc3ccc(OCCN)c(c3)-c3cc2ccc3OCCN)cc1F [Compound 203]		0.012 (≈ 0.0138 µM)		0.72	0.031 (≈ 0.0355 µM)	0.13 (≈ 0.149 µM)
CCCCCCCc1cc(Cl)c(C(=O)N[C@@H](CCN)C(=O)N(C)[C@@H]2C(=O)N[C@@H](C)C(=O)N[C@H](C(=O)NCC#N)Cc3ccc(OCCN)c(c3)-c3cc2ccc3OCCN)c(Cl)c1 [Compound 226]		0.012 (≈ 0.0132 µM)		0.88	0.094 (≈ 0.103 µM)	0.38 (≈ 0.418 µM)
CC(C)CCc1ccc(-c2ccc(C(=O)N[C@@H](CCN)C(=O)N(C)[C@@H]3C(=O)N[C@@H](C)C(=O)N[C@H](C(=O)NCC#N)Cc4ccc(OCCN)c(c4)-c4cc3ccc4OCCN)cc2)cc1 [Compound 177]		0.016 (≈ 0.018 µM)		1.1	0.094 (≈ 0.106 µM)	0.19 (≈ 0.214 µM)
Cc1cc(-c2ccc(-c3ccccc3)cc2)ccc1C(=O)N[C@@H](CCN)C(=O)N(C)[C@@H]1C(=O)N[C@@H](C)C(=O)N[C@H](C(=O)NCC#N)Cc2ccc(OCCN)c(c2)-c2cc1ccc2OCCN [Compound 144]		0.053 (≈ 0.0584 µM)		0.91	0.031 (≈ 0.0341 µM)	0.16 (≈ 0.176 µM)
C[C@@H]1NC(=O)[C@@H](N(C)C(=O)[C@H](CCCCN)NC(=O)c2ccc(/C=C/c3ccccc3)cc2)c2ccc(OCCN)c(c2)-c2cc(ccc2OCCN)C[C@@H](C(=O)NCC#N)NC1=O [Compound 110]	0.19 (≈ 0.218 µM)	0.063 (≈ 0.0722 µM)	8 (≈ 9.17 µM)	0.96		
CCCCCCCCCCCC(=O)N[C@@H](CCCO)C(=O)N(C)[C@@H]1C(=O)N[C@@H](C)C(=O)N[C@H](C(=O)NCC#N)Cc2ccc(OCCN)c(c2)-c2cc1ccc2OCCN [Compound 264]		0.094 (≈ 0.113 µM)		2	0.13 (≈ 0.156 µM)	16 (≈ 19.2 µM)
Cc1cc(C#CC2CCCCC2)ccc1C(=O)N[C@@H](CCN)C(=O)N(C)[C@@H]1C(=O)N[C@@H](C)C(=O)N[C@H](C(=O)NCC#N)Cc2ccc(OCCN)c(c2)-c2cc1ccc2OCCN [Compound 310]		0.0098 (≈ 0.0114 µM)		0.99	0.047 (≈ 0.0545 µM)	0.13 (≈ 0.151 µM)
CCCCc1ccc(-c2ccc(C(=O)N[C@@H](CN)C(=O)N(C)[C@@H]3C(=O)N[C@@H](C)C(=O)N[C@H](C(=O)NCC#N)Cc4ccc(OCCN)c(c4)-c4cc3ccc4OCCN)cc2)cc1 [Compound 341]		0.031 (≈ 0.036 µM)		1.1	0.13 (≈ 0.151 µM)	0.5 (≈ 0.581 µM)
CCCCCCOCc1ccc(C(=O)N[C@@H](CCN)C(=O)N(C)[C@@H]2C(=O)N[C@@H](C)C(=O)N[C@H](C(=O)NCC#N)Cc3ccc(OCCN)c(c3)-c3cc2ccc3OCCN)c(C)c1 [Compound 298]		0.0078 (≈ 0.00896 µM)		0.82	0.063 (≈ 0.0724 µM)	1 (≈ 1.15 µM)
CCCCCCCCCCNCCC(=O)N[C@@H](CCN)C(=O)N(C)[C@@H]1C(=O)N[C@@H](C)C(=O)N[C@H](C(=O)NCC#N)Cc2ccc(OCCN)c(c2)-c2cc1ccc2OCCN [Compound 129]		0.094 (≈ 0.111 µM)		0.67	0.023 (≈ 0.0271 µM)	4 (≈ 4.71 µM)
C[C@@H]1NC(=O)[C@@H](N(C)C(=O)[C@H](CCN)NC(=O)c2ccc(C(C)(C)C)cc2C(F)F)c2ccc(OCCN)c(c2)-c2cc(ccc2OCCN)C[C@@H](C(=O)NCC#N)NC1=O [Compound 220]	0.25 (≈ 0.295 µM)	0.047 (≈ 0.0554 µM)	2.5 (≈ 2.95 µM)	1.5		
CCc1cnc(-c2ccc(C(=O)N[C@@H](CCN)C(=O)N(C)[C@@H]3C(=O)N[C@@H](C)C(=O)N[C@H](C(=O)NCC#N)Cc4ccc(OCCN)c(c4)-c4cc3ccc4OCCN)c(C)c2)nc1 [Compound 176]		0.13 (≈ 0.151 µM)		2.6	1 (≈ 1.16 µM)	2 (≈ 2.32 µM)
CCCCCCCCc1nc(C)c(C(=O)N[C@@H](CCN)C(=O)N(C)[C@@H]2C(=O)N[C@@H](C)C(=O)N[C@H](C(=O)NCC#N)Cc3ccc(OCCN)c(c3)-c3cc2ccc3OCCN)s1 [Compound 213]		0.023 (≈ 0.0263 µM)		0.64	0.047 (≈ 0.0537 µM)	2 (≈ 2.29 µM)
CCCCCCCCCC(=O)NCCC(=O)N[C@@H](CCN)C(=O)N(C)[C@@H]1C(=O)N[C@@H](C)C(=O)N[C@H](C(=O)NCC#N)Cc2ccc(OCCN)c(c2)-c2cc1ccc2OCCN [Compound 367]		0.13 (≈ 0.151 µM)		0.88	0.094 (≈ 0.109 µM)	12 (≈ 13.9 µM)
CCCCCCc1ccc(C(=O)N[C@@H](CCN)C(=O)N(C)[C@@H]2C(=O)N[C@@H](C)C(=O)N[C@H](C(=O)NCC#N)Cc3ccc(OCCN)c(c3)-c3cc2ccc3OCCN)cn1 [Compound 201]		0.031 (≈ 0.0375 µM)		1.4	0.19 (≈ 0.23 µM)	2 (≈ 2.42 µM)
CCCCCCCCCC(=O)N[C@H](CCO)C(=O)N[C@@H](CCN)C(=O)N(C)[C@@H]1C(=O)N[C@@H](C)C(=O)N[C@H](C(=O)NCC#N)Cc2ccc(OCCN)c(c2)-c2cc1ccc2OCCN [Compound 379]	0.25 (≈ 0.28 µM)	0.25 (≈ 0.28 µM)	32 (≈ 35.8 µM)	0.89		
C[C@@H]1NC(=O)[C@@H](N(C)C(=O)[C@H](CCN)NC(=O)c2ccc(-c3ccc4c(c3)CCCC4)cc2F)c2ccc(OCCN)c(c2)-c2cc(ccc2OCCN)C[C@@H](C(=O)NCC#N)NC1=O [Compound 139]	0.047 (≈ 0.0528 µM)	0.012 (≈ 0.0135 µM)	0.25 (≈ 0.281 µM)	0.94		
C[C@@H]1NC(=O)[C@@H](N(C)C(=O)[C@H](CCN)NC(=O)c2ccc(-c3ccc4c(c3)CCCC4)cc2Cl)c2ccc(OCCN)c(c2)-c2cc(ccc2OCCN)C[C@@H](C(=O)NCC#N)NC1=O [Compound 140]	0.031 (≈ 0.0342 µM)	0.0078 (≈ 0.0086 µM)	0.13 (≈ 0.143 µM)	0.99		
CCCCCCCc1cc(C)c(C(=O)N[C@@H](CCN)C(=O)N(C)[C@@H]2C(=O)N[C@@H](C)C(=O)N[C@H](C(=O)NCC#N)Cc3ccc(OCCN)c(c3)-c3cc2ccc3OCCN)c(Cl)c1 [Compound 205]		0.016 (≈ 0.018 µM)		0.85	0.063 (≈ 0.0709 µM)	0.25 (≈ 0.281 µM)
